Series [1] can be described thus: Solubility / reprecipitation of estramustine derivative with cyclodextrins (general statements). The class given is physicochemical. The note with it: for effects of reprecipitation induced by cations: calcium or other cations.
Series [2] is described as follows: Reprecipitation of EPS by calcium chloride in pH 3.1 buffer, EPS in solution assayed by UV spectroscopy (Example 1). The class given is physicochemical. The note with it: 640 mcg/ml EPS, pH 3.1 HCl/KCl buffer (I=0.1). As to the method: To a solution in a pH 3.1 HCl/KCl buffer (I=0.1), containing 640 mcg/ml of Estramustine-17-phosphate disodium salt (EPS), were added appropriate quantities of calcium chloride in order to have drug:salt molar ratios in the range from 1:0 to 1:1. The samples were filtered and the quantity of Estramustine-17-phosphate sodium salt in solution was assayed by UV spectroscopy.

A short description of series [3]: EPS in solution after addition of calcium chloride to solution of EPS and cyclodextrin, pH 3.1, UV spectroscopy (Examples 2-4). Format: physicochemical. The note with it: about 1 mg/ml EPS. As to the method:
(§1) The samples were filtered and the quantity of Estramustine-17-phosphate disodium salt in solution was assayed by UV spectroscopy.
as §1, §1

The conditions of series [4]: oral administration; interaction with foods and drinks; cited from earlier work.
Series [5] in a line: Solubilization by cyclodextrins of previously formed precipitate of EPS with calcium, pH 3.1, UV spectroscopy (Examples 5-7). Format: physicochemical. The note with it: about 1 mg/ml EPS, CD added to preformed precipitate. As for the experimental part: The samples were filtered and the quantity of Estramustine disodium salt in solution was assayed by UV spectroscopy.
as §1, §1

Counter-ions that a name gives are not always drawn.

Turning to `C[C@]12CC[C@@H]3c4ccc(OC(=O)N(CCCl)CCCl)cc4CC[C@H]3[C@@H]1CC[C@@H]2OP(=O)(O)O` [EPS, Estramustine-17-phosphate disodium salt], the “solubility of the drug itself” value in series [1] (when mixed with cyclodextrins) was “does not change in a significant way”. In series [1] (with cyclodextrins, disodium salt), the “effects of reprecipitation induced by cations” value was “quite negligible”. The EPS in solution in series [2] (EPS:CaCl2 molar ratio 1:0) was determined as 100%; in series [2] (EPS:CaCl2 molar ratio 1:0.25), 42%; in series [2] (EPS:CaCl2 molar ratio 1:0.5) it was 21%; in series [2] (EPS:CaCl2 molar ratio 1:1), 14%; in series [3] (EPS:CD:CaCl2 molar ratio 1:0:1 (no CD)) it was 16%; in series [3] (EPS:CD:CaCl2 molar ratio 1:0:2 (no CD)) it was 4%. In addition, the EPS in solution is 4% in series [3] (EPS:CD:CaCl2 molar ratio 1:0:4 (no CD)), 16% in series [5] (EPS:CaCl2:CD molar ratio 1:1:0 (no CD)), 4% in series [5] (EPS:CaCl2:CD molar ratio 1:2:0 (no CD)) and 4% in series [5] (EPS:CaCl2:CD molar ratio 1:4:0 (no CD)). Further, the “reprecipitation of the drug” value in series [4] was “induced by cations and in particular by calcium ions”.

With `C[C@H](N)C(=O)O[C@H]1CC[C@H]2[C@@H]3CCc4cc(OC(=O)N(CCCl)CCCl)ccc4[C@H]3CC[C@]12C` [Estramustine-17-L-alaninate], the “effect of reprecipitation by anionic species” value in series [1] (with cyclodextrins) is given as “avoiding any effect of reprecipitation by anionic species”. The “reprecipitation of the drug” value in series [4] is listed as “induced by anionic species, such as chlorine ions”.

For `C[C@]12CC[C@@H]3c4ccc(OC(=O)N(CCCl)CCCl)cc4CC[C@H]3[C@@H]1CC[C@@H]2OP(=O)(O)O` [Estramustine-17-phosphate], in series [1] (with cyclodextrins), the “redissolution of already formed precipitate with calcium” value is “redissolve the already formed precipitate” and the “effects of reprecipitation induced by cations” value is given as “avoid the reprecipitation”. Moreover, the “passage in solution of the drug in the presence of calcium ions” value in series [1] (with cyclodextrins, calcium ions in dissolution medium) is “permit the passage in solution of the drug”.

(Values after patent US5712260A, “Estramustine formulations with improved pharmaceutical properties” (Pharmacia AB, priority 1994, dated 1998).)
